# Assay results reported in patent US20260116868A1 (Arcus Biosciences, Inc., priority 2023, published 2026).
# Molecular target: T1, Cbl-b (Homo sapiens, UniProt Q13191)
# T1 construct: biotin (biotinylated protein)
# Assay: Cbl-b probe displacement HTRF binding assay
# Conditions: 0.4 nM Cbl-b, 150 nM BODIPY probe
# Protocol: The affinity with which compounds of the present disclosure bind to Cbl-b was assessed using probe displacement homologous time resolved fluorescence (HTRF) assays. The assays used a BODIPY™ conjugated probe (Example 54 from WO 2020264398) and biotinylated Cbl-b. The assays were performed in assay buffer consisting of 20 mM Hepes, 150 mM NaCl, 0.01% Triton X-100, 0.5 mM TCEP, 0.01% BSA. On the day of the assay, a 20 point, 1:2 master serial dilution of each compound was prepared in DMSO to span a final concentration range of […] to 0 nM. Two hundred nanoliters of diluted compound was added to each well of a 384-well plate. Fifteen microliters of biotinylated- Cbl-b resuspended in assay buffer were added to each well and the plate incubated for 60 minutes at room temperature prior to addition of 5 μL of BODIPY™ probe in assay buffer. Final assay conditions included 0.4 nM of Cbl-b and 150 nM of BODIPY™ probe. After a further 15 minutes of incubation at room temperature, 5 μl of Streptavidin-Terbium cryptate reagent at 5-fold final concentration was added to each well of the 384-well plate. Binding of a probe to Cbl-b results in an increase of HTRF signal. HTRF signal was measured by Envision plate reader, while competition of a compound of the present disclosure with probe results in a decrease of signal. Percentage maximum activity in each test well was calculated based on DMSO (maximum activity, 0% displacement) and no protein control wells (baseline activity, 100% displacement). Binding affinity was determined from a dose response curve fitted using a standard four parameter fit equation. See Table 7 for data for compounds (Cbl-b Binding (IC50)).
# T1 sequence (Q13191 whole entry, species assumed): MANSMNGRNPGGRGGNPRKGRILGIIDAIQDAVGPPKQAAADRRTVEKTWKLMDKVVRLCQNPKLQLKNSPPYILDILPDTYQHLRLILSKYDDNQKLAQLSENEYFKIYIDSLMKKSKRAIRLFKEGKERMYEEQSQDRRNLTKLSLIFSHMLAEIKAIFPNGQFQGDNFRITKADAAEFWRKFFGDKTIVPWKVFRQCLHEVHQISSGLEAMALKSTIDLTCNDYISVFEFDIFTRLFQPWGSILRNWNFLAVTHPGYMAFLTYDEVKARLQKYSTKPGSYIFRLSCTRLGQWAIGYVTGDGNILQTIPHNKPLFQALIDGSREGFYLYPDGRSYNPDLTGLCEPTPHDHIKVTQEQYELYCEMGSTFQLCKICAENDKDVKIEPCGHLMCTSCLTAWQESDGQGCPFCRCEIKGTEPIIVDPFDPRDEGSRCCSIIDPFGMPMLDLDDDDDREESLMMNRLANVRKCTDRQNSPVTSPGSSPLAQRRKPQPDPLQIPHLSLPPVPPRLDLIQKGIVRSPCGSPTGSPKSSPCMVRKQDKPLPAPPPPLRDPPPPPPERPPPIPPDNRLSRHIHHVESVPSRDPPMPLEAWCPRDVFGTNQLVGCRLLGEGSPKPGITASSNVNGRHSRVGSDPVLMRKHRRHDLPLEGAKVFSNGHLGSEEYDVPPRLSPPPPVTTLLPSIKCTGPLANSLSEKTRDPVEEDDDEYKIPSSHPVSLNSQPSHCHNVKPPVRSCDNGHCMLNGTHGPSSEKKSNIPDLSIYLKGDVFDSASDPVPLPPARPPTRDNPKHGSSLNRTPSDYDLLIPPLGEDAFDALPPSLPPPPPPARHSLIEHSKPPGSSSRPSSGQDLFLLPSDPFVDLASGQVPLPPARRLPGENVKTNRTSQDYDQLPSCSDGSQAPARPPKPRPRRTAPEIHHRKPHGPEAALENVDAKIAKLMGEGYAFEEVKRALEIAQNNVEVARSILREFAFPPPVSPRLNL
row,SMILES,IC50 [nM]
1,"N#Cc1ccc(-c2cc(NC(=O)c3cc(CNC[C@@H]4CCCO4)cn(C4CC4)c3=O)nc(OCC(F)F)c2)c(C(=O)N2CC(F)(F)C2)c1 [Example 132, N-(4-{4-cyano-2-[(3,3-difluoro-1-azetidinyl)carbonyl]phenyl}-6-(2,2-difluoroethoxy)-2-pyridyl)-1-cyclopropyl-2-oxo-5-[({[(S)-perhydro-2-furyl]methyl}amino)methyl]-1,2-dihydronicotinamide]",< 100
2,CO[C@@H](C)CNCc1cc(C(=O)Nc2cc(-c3ccc(C#N)cc3C(=O)N3CC(C)(F)C3)cc(C3CC3)n2)c(=O)n(C2CC2)c1 [Example 394],< 100
3,CCOc1cc(-c2ccc(OC(F)F)cc2C(=O)N2CC(F)C2)cc(NC(=O)c2cc(CNC[C@@H]3CCCO3)cn(C)c2=O)n1 [Example 282],< 100
4,CCn1cc(CNCC2CC2)cc(C(=O)Nc2cc(-c3ccc(C#N)cc3C(=O)N3CC(F)(F)C3)cc(C3CC3)n2)c1=O [Example 189],< 100
5,COc1ccc(-c2cc(NC(=O)c3cc(CN[C@@H](CO)C4CCC4)cn(C4CC4)c3=O)nc(OC(C)C)c2)c(C(=O)N2CC(F)C2)c1 [Example 318],< 100
6,CO[C@@H](C)CNCc1cc(C(=O)Nc2cc(-c3ccc(Cl)cc3C(=O)N3CC(F)(F)C3)cc(OCC(F)F)n2)c(=O)n(C2CC2)c1 [Example 162],< 100
7,COc1cc(-c2ccc(OC(F)F)cc2C(=O)N2CC(F)(F)C2)cc(NC(=O)c2cc(CNC[C@H](C)OC)cn(C3CC3)c2=O)n1 [Example 334],< 100
8,CC(C)Oc1cc(-c2ccc(C#N)cc2C(=O)N2CC(F)(F)C2)cc(NC(=O)c2cc(CNCC3(F)CCC3)cn(C3CC3)c2=O)n1 [Example 141],< 100
9,CC(N[C@@H](C)C1CCC1)c1cc(C(=O)Nc2cc(-c3ccc(C#N)cc3C(=O)N3CC(F)(F)C3)cc(C3CC3)n2)c(=O)n(C2CC2)c1 (some centres unmarked) [Example 329],< 100
10,Cn1cc(CNC[C@@H]2CCCO2)cc(C(=O)Nc2cc(-c3ccc(C#N)cc3C(=O)N3CC(F)(F)C3)cc(OCF)n2)c1=O [Example 350],< 100
11,"O=C(Nc1cc(-c2c(F)cc(Cl)cc2C(=O)N2CC(F)(F)C2)cc(C2CC2)n1)c1cc(CNC[C@@H]2CCCCO2)cn(C2CC2)c1=O [Example 146, N-(4-{4-chloro-2-[(3,3-difluoro-1-azetidinyl)carbonyl]-6-fluorophenyl}-6-cyclopropyl-2-pyridyl)-1-cyclopropyl-2-oxo-5-[({[(S)-tetrahydro-2H-pyran-2-yl]methyl}amino)methyl]-1,2-dihydronicotinamide]",< 100
12,COCCNCc1cc(C(=O)Nc2cc(-c3ccc(OC(F)F)cc3C(=O)N3CC(F)(F)C3)cc(C3CC3)n2)c(=O)n(C2CC2)c1 [Example 337],< 100
13,"C[C@H](NCc1cc(C(=O)Nc2cc(-c3ccc(Cl)cc3C(=O)N3CC(F)(F)C3)cc(C3CC3)n2)c(=O)n(C2CC2)c1)C1CC1 [Example 135, N-(4-{4-chloro-2-[(3,3-difluoro-1-azetidinyl)carbonyl]phenyl}-6-cyclopropyl-2-pyridyl)-1-cyclopropyl-5-{[(S)-1-cyclopropylethylamino]methyl}-2-oxo-1,2-dihydronicotinamide]",< 100
14,CO[C@@H](C)CNCc1cc(C(=O)Nc2cc(-c3c(F)cc(C#N)cc3C(=O)N3CC(F)(F)C3)cc(C3CC3)n2)c(=O)n(C)c1 [Example 228],< 100
15,CC(C)CNCc1cc(C(=O)Nc2cc(-c3ccc(C#N)cc3C(=O)N3CC(F)(F)C3)cc(OC(C)C)n2)c(=O)n(C)c1 [Example 211],< 100
16,O=C(Nc1cc(-c2ccc(OC(F)F)cc2C(=O)N2CC(F)(F)C2)cc(C2CC2)n1)c1cc(CNC[C@@H]2CCCO2)cn(C2CC2)c1=O [Example 325],< 100
17,COc1ccc(-c2cc(NC(=O)c3cc(CN[C@@H](C)C4CCC4)cn(C4CC4)c3=O)nc(OC(C)C)c2)c(C(=O)N2CC(F)C2)c1 [Example 254],< 100
18,CCNc1cc(-c2ccc(Cl)cc2C(=O)N2CC(F)(F)C2)cc(NC(=O)c2cc(CNC[C@H](C)OC)cn(C)c2=O)n1 [Example 172],< 100
19,CC(C)[C@H](C)N[C@@H](C)c1cc(C(=O)Nc2cc(-c3ccc(C#N)cc3C(=O)N3CC(F)(F)C3)cc(C3CC3)n2)c(=O)n(C2CC2)c1 [Example 336],< 100
20,COc1ccc(-c2cc(NC(=O)c3cc(CNC[C@H](C)OC)cn(C4CC4)c3=O)nc(OC(C)C)c2)c(C(=O)N2CC(F)(F)C2)c1 [Example 305],< 100
21,COCCNCc1cc(C(=O)Nc2cc(-c3ccc(Cl)cc3C(=O)N(C)C)cc(C3CC3)n2)c(=O)n(C2CC2)c1 [Example 307],< 100

row,SMILES,IC50 [nM]
1,"C[C@H](NCc1cc(C(=O)Nc2cc(-c3ccc(C#N)cc3C(=O)N3CC(F)(F)C3)cc(OCC(F)F)n2)c(=O)n(C2CC2)c1)C1CCC1 [Example 130, N-(4-{4-cyano-2-[(3,3-difluoro-1-azetidinyl)carbonyl]phenyl}-6-(2,2-difluoroethoxy)-2-pyridyl)-5-{[(S)-1-cyclobutylethylamino]methyl}-1-cyclopropyl-2-oxo-1,2-dihydronicotinamide]",< 100
2,COc1ccc(-c2cc(NC(=O)c3cc(CN[C@@H](C)[C@H](C)OC)cn(C4CC4)c3=O)nc(C3CC3)c2)c(C(=O)N2CC(F)C2)c1 [Example 269],< 100
3,O=C(Nc1cc(-c2ccc(Cl)cc2C(=O)N2CC(F)(F)C2)cc(C2CC2)n1)c1cc(CNC[C@@H]2CCCCO2)cn(C2CC2)c1=O [Example 398],< 100
4,"CO[C@@H](C)CNCc1cc(C(=O)Nc2cc(-c3ccc(Cl)cc3C(=O)N(C)C)cc(C3CC3)n2)c(=O)n(C2CC2)c1 [Example 161, N-{4-[4-Chloro-2-(N,N-dimethylcarbamoyl)phenyl]-6-cyclopropyl-2-pyridyl}-1-cyclopropyl-5-{[(S)-2-methoxypropylamino]methyl}-2-oxo-1,2-dihydronicotinamide]",< 100
5,CO[C@@H](C)CNCc1cc(C(=O)Nc2cc(-c3ccc(C#N)cc3C(=O)N3CC(F)(F)C3)cc(C3CC3)c2)c(=O)n(C2CC2)c1 [Example 393],< 100
6,N#Cc1ccc(-c2cc(NC(=O)c3cc(CNCCC(F)(F)F)cn(C4CC4)c3=O)nc(C3CC3)c2)c(C(=O)N2CC(F)(F)C2)c1 [Example 391],< 100
7,N#Cc1ccc(-c2cc(NC(=O)c3cc(CNC[C@@H]4CCCO4)cn(C4CC4)c3=O)nc(C3CC3)c2)c(C(=O)N2CC(F)(F)C2)c1 [Example 352],< 100
8,CO[C@@H](C)CNCc1cc(C(=O)Nc2cc(-c3ccc(F)cc3C(=O)N3CC(F)(F)C3)cc(C3CC3)c2)c(=O)n(C2CC2)c1 [Example 396],< 100
9,"CO[C@@H](C)CNCc1cc(C(=O)Nc2cc(-c3c(F)cc(C#N)cc3C(=O)N3CC(F)(F)C3)cc(OC(C)C)n2)c(=O)n(C2CC2)c1 [Example 127, N-(4-{4-cyano-2-[(3,3-difluoro-1-azetidinyl)carbonyl]-6-fluorophenyl}-6-isopropoxy-2-pyridyl)-1-cyclopropyl-5-{[(S)-2-methoxypropylamino]methyl}-2-oxo-1,2-dihydronicotinamide]",< 100
10,C[C@H](NCc1cc(C(=O)Nc2cc(-c3ccc(C#N)cc3C(=O)N3CC(F)(F)C3)cc(C3CC3)n2)c(=O)n(C2CC2)c1)C1CCC1 [Example 351],< 100
11,COc1ccc(-c2cc(NC(=O)c3cc(CNCC(C)C)cn(C4CC4)c3=O)nc(OC(C)C)c2)c(C(=O)N2CC(F)C2)c1 [Example 281],< 100
12,Cn1cc(CNC[C@@H]2CCCCO2)cc(C(=O)Nc2cc(-c3ccc(C#N)cc3C(=O)N3CC(F)(F)C3)cc(C3CC3)n2)c1=O [Example 190],< 100
13,CC(C)Oc1cc(-c2ccc(OC(F)F)cc2C(=O)N2CC(F)C2)cc(NC(=O)c2cc(CNC[C@@H]3COCCO3)cn(C)c2=O)n1 [Example 377],< 100
14,CCOc1cc(-c2ccc(Cl)cc2C(=O)N2CC(F)(F)C2)cc(NC(=O)c2cc(CNC[C@H](C)OC)cn(C)c2=O)n1 [Example 180],< 100
15,CC1(CNCc2cc(C(=O)Nc3cc(-c4ccc(Cl)cc4C(=O)N4CC(F)(F)C4)cc(C4CC4)n3)c(=O)n(C3CC3)c2)CC1 [Example 408],< 100
16,CCNc1cc(-c2ccc(Cl)cc2C(=O)N2CC(F)C2)cc(NC(=O)c2cc(CNC[C@H](C)OC)cn(C3CC3)c2=O)n1 [Example 245],< 100
17,Cc1ccc(-c2cc(NC(=O)c3cc(CN[C@@H](C)C4CCC4)cn(C4CC4)c3=O)nc(OCC(F)F)c2)c(C(=O)N2CC(F)(F)C2)c1 [Example 347],< 100
18,CO[C@@H](C)CNCc1cc(C(=O)Nc2cc(-c3ccc(C#N)cc3C(=O)N3CCC3)cc(C3CC3)n2)c(=O)n(C2CC2)c1 [Example 364],< 100
19,CC(C)Oc1cc(-c2ccc(C#N)cc2C(=O)N2CC(F)C2)cc(NC(=O)c2cc(CNC[C@@H]3CCCO3)cn(C)c2=O)n1 [Example 279],< 100
20,CO[C@@H](C)[C@H](C)NCc1cc(C(=O)Nc2cc(-c3ccc(Cl)cc3C(=O)N3CC(F)C3)cc(OC(C)C)n2)c(=O)n(C2CC2)c1 [Example 259],< 100
